We go through 5 molecules from US12240858B2 (ANBOGEN THERAPEUTICS, INC, priority 2021, dated 2025).

Series [1] in a line: Pharmacokinetics study, rat IV and PO. In kind it is in vivo.
The nature of series [2]: Weight loss before melting (TGA) of solid forms. In kind it is physicochemical.
Series [3] is described as follows: Solubility 24 hrs in FaSSIF, FeSSIF, SGF, H2O. Format: physicochemical. The settings on record: thermodynamic from solid. From the text: In Table 3, “FaSSIF” stands for “Fasted state simulated intestinal fluid”; “FeSSIF” stands for “Fed state simulated intestinal fluid”; “SGF” stands for “Simulated gastric fluid”.
Series [4] can be described thus: Stability of solid forms under stress conditions. Format: physicochemical.
Setting [5] is: 20 mg/kg, listed as ABT-101 S0*.
Where [6] appears, read: FeSSIF (fed state simulated intestinal fluid), fessif.
Where [7] appears, read: SGF (simulated gastric fluid), simulated gastric fluid, SGF.

In brackets after ≈: the same amount, converted by molar mass. Structures can show the parent of a compound that is named as a salt. Where two headings read alike, the source gives them in different places.

For `CN(C)C/C=C/C(=O)Nc1cccc(-c2c(-c3ccccc3)oc3ncnc(N[C@H](CO)c4ccccc4)c23)c1` [ABT-101 S0, (S, E)-4-(dimethylamino)-N-(3-(4-(2-hydroxy-1-phenylethylamino)-6-phenylfuro[2,3-d]pyrimidin-5-yl)phenyl)but-2-enamide], the “increased Cmax, AUC and F (%) compared to amorphous form (ABT-101 S0)” value in series [1] was 1.9˜3 times. For the same molecule, the values for the Cmax in series [1] (20 mg/kg) and in series [1] (setting [5]) were 136 ng/mL and 508 ng/mL, respectively. Moreover, the “F (%)” value in series [1] (20 mg/kg) amounted to 19%; in series [1] (setting [5]), 42%. Further, the time of peak concentration (Tmax) in series [1] (setting [5]) was 3.3 h; in series [1] (rat, in vivo, po, 20 mg/kg, read-out: Tmax) it was 4 h. For the same molecule, the half-life in series [1] (rat, in vivo, po, 20 mg/kg) was 282 min.

`CN(C)C/C=C/C(=O)Nc1cccc(-c2c(-c3ccccc3)oc3ncnc(N[C@H](CO)c4ccccc4)c23)c1` [Free Base, (S, E)-4-(dimethylamino)-N-(3-(4-(2-hydroxy-1-phenylethylamino)-6-phenylfuro[2,3-d]pyrimidin-5-yl)phenyl)but-2-enamide]: the “Weight loss before melting (%) (TGA)” value in series [2] was 0.6 wt %. For the same molecule, the solubility at 24 h in series [3] (FaSSIF (fasted state simulated intestinal fluid), fassif) is 320 µg/mL (≈ 600 µM); in series [3] (setting [6]), 410 µg/mL (≈ 768 µM); in series [3] (setting [7]), 9100 µg/mL (≈ 17100 µM); in series [3] (water, H2O), 20 µg/mL (≈ 37.5 µM). Also, the Stability entry was “Stable” in series [4] (25° C./60% RH, 1 week); “Stable” in series [4] (40° C./75% RH, 1 week); “Stable” in series [4] (80° C., 24 hrs).

For `CN(C)C/C=C/C(=O)Nc1cccc(-c2c(-c3ccccc3)oc3ncnc(NC(CO)c4ccccc4)c23)c1` (stereo not drawn) [Glycollate], in series [2], the “Weight loss before melting (%) (TGA)” value amounted to 0.7 wt %. Besides, the solubility at 24 h is over 11300 µg/mL in series [3] (setting [6]) and over 10900 µg/mL in series [3] (setting [7]). The Stability entry is “Stable” in series [4] (25° C./60% RH, 1 week); “Unstable” in series [4] (40° C./75% RH, 1 week); “Stable” in series [4] (80° C., 24 hrs).

On to `CN(C)C/C=C/C(=O)Nc1cccc(-c2c(-c3ccccc3)oc3ncnc(NC(CO)c4ccccc4)c23)c1` (stereo not drawn) [Hydrochloride], for which the “Weight loss before melting (%) (TGA)” value in series [2] was determined as 3.6 wt %. Further, the Stability result is “Stable” in series [4] (25° C./60% RH, 1 week); “Stable” in series [4] (40° C./75% RH, 1 week); “Stable” in series [4] (80° C., 24 hrs).

Regarding `CN(C)C/C=C/C(=O)Nc1cccc(-c2c(-c3ccccc3)oc3ncnc(NC(CO)c4ccccc4)c23)c1` (stereo not drawn) [Succinate], in series [2], the “Weight loss before melting (%) (TGA)” value is given as 0.5 wt %. The Stability entry in series [4] (25° C./60% RH, 1 week) is listed as “Stable”; in series [4] (40° C./75% RH, 1 week) it was “Unstable”; in series [4] (80° C., 24 hrs), “Stable”.

The term Cmax denotes the maximum level reached in the sampled fluid or tissue. The Tmax is the time at which the peak concentration occurs. The half-life is the time needed for the level to fall by half in the phase considered. In general, solubility refers to the dissolved amount per volume that the medium holds. The low end stands for little dissolved substance, the high end for much dissolved substance.
